According to patent publication US20250222003A1, “PHARMACEUTICAL COMPOSITION FOR TREATING SOLID TUMORS” (Eisai R&D Management Co., Ltd., priority 2021, published 2025):

System: patients with a solid tumor
Details: human, in vivo
Description: This study was carried out as an open-label phase I clinical trial for Compound A. The study was composed of a dose-escalation part to evaluate the safety and tolerability of Compound A, and an expansion part to evaluate the safety, tolerability and preliminary efficacy of Compound A. Each dose in the Examples is expressed as a dose of Compound A in free form.
In the dose-escalation part, the safety and tolerability of Compound A was evaluated at a plurality of doses using a 3+3 design. The starting dose of Compound A was set at 10 mg BID (twice daily).
NCI CTCAE v5.0 was used to evaluate the severity.
This was performed using the analysis subject populations for all safety evaluations (excluding DLT evaluations).
Summary statistics for the safety data (continuous variables: number of cases, mean value, standard deviation, median, minimum and maximum values; categorical variables: number of cases and proportion) were calculated based on the actually administered treatments. […] The following laboratory tests were performed: hematological tests (red blood cell count, hemoglobin, hematocrit value, platelet count, white blood cell count, white blood cell fractions (neutrophils, lymphocytes, monocytes, eosinophils, basophils) coagulation test: INR), blood biochemical tests (liver function tests (AST, ALT, ALP, GGT, total bilirubin, direct bilirubin), renal function test (BUN, creatinine), other tests (blood glucose level, albumin, cholesterol, LDH, total protein, uric acid, amylase, lipase, Na, K, Cl, Ca, phosphorus, Mg, virus test: HBs antigen a, HBs antibody a, HBc antibody a, HCV antibody a, HIV antibody a, HBV DNAb, B-CTXc, 25-hydroxyvitamin Dd), and urine test (pH, protein, sugar, ketone bodies, occult blood, specific gravity)).

Q: How did the “Subjects with Any Treatment-related TEAEs, Any Grade, (%)” value turn out when `C=CCN1CC(=O)N2[C@@H](Cc3ccc(O)cc3F)C(=O)N(Cc3cccc(N4CC(N5CCN(CC)CC5)C4)n3)C[C@@H]2N1C(=O)NCc1ccccc1` [Compound A, (6S,9aS)—N-benzyl-8-({6-[3-(4-ethylpiperazin-1-yl)azetidin-1-yl]pyridin-2-yl}methyl)-6-(2-fluoro-4-hydroxybenzyl)-4,7-dioxo-2-(prop-2-en-1-yl)hexahydro-2H-pyrazino[2,1-c][1,2,4]triazine-1 (6H)-carboxamide] was run?
A: (89.3) %

Q: What about the “Subjects with Any Treatment-related TEAEs, Grade ≥3, (%)” value of the same compound?
A: (10.7) %

Q: What about the “TEAE Alanine aminotransferase increased, Any Grade, (%)” value of the same compound?
A: (14.3) %

Q: And the “TEAE Amylase increased, Any Grade, (%)” value?
A: (3.6) %

Q: What about the “TEAE Anemia, Any Grade, (%)” value of the same compound?
A: (10.7) %

Q: And the “TEAE Aspartate aminotransferase increased, Any Grade, (%)” value?
A: (14.3) %

Q: What about the “TEAE C-telopeptide increased, Any Grade, (%)” value of the same compound?
A: (3.6) %

Q: And the “TEAE Decreased appetite, Any Grade, (%)” value?
A: (10.7) %

Q: And the “TEAE Decreased appetite, Grade ≥3, (%)” value?
A: (7.1) %

Q: And the “TEAE Diarrhea, Any Grade, (%)” value?
A: (7.1) %

Q: And the “TEAE Electrocardiogram QT prolonged, Any Grade, (%)” value?
A: (3.6) %

Q: What about the “TEAE Hyperphosphatemia, Any Grade, (%)” value of the same compound?
A: (3.6) %

Q: What about the “TEAE Lipase increased, Any Grade, (%)” value of the same compound?
A: (3.6) %

Q: What about the “TEAE Lipase increased, Grade ≥3, (%)” value of the same compound?
A: (3.6) %

Q: What about the “TEAE Liver disorder, Any Grade, (%)” value of the same compound?
A: (3.6) %

Q: What about the “TEAE Nausea, Any Grade, (%)” value of the same compound?
A: (78.6) %

Q: What about the “TEAE Osteoporosis, Any Grade, (%)” value of the same compound?
A: (3.6) %

Q: What about the “TEAE Rash, Any Grade, (%)” value of the same compound?
A: (3.6) %

Q: And the “TEAE Sinus tachycardia, Any Grade, (%)” value?
A: (3.6) %

Q: And the “TEAE Stomatitis, Any Grade, (%)” value?
A: (3.6) %

Q: What about the “TEAE Vomiting, Any Grade, (%)” value of the same compound?
A: (67.9) %

Q: What about the “TEAE White blood cell count decreased, Any Grade, (%)” value of the same compound?
A: (7.1) %

Q: What about the recommended dose of the same compound?
A: less than 160 mg BID
